Source: patent US4269834A, “Copper complexes of isoquinazolines” (priority 1977, dated 1981)
Converted amounts (≈) assume the structure as drawn. Where two headings read alike, the source gives them in different places.

System: Mycoplasma gallisepticum
Experiment: Activity against Mycoplasma gallisepticum (minimum inhibiting concentration)
Type: cell-based
Conditions: for MIC with Cu: media containing 50 μg/ml Cu^2+; for MIC: without added Cu; for MIC M. gall. with Cu: with Cu (50 μg/ml Cu^2+)
From the text: The following tables show some activities--expressed as minimum inhibiting concentration (MIC)--of the prepared compounds against various micro-organisms. The compounds are identified by reference to the Example in which they are described. When more than one compound is mentioned in an Example, they are distinguished by a number between parentheses, corresponding to their order of occurrence, for instance: VI (2) refers to the second compound prepared according to Example VI. The term "with Cu" refers to tests conducted in media containing 50 μg/ml Cu^2+.
The activities of the following compounds, not mentioned in the Examples, were also measured.

[1] = Mycoplasmoides gallisepticum, Table I, read-out: MIC
[2] = Mycoplasmoides gallisepticum, Table IVb, read-out: MIC M. gall.

Cn1ccnc1-c1nc(N)c2ccccc2n1.Cn1ccnc1-c1nc(N)c2ccccc2n1.O=[N+]([O-])[O-].O=[N+]([O-])[O-].[Cu+2] [XVIb (3), Bis[4-amino-2-(1-methyl-1H-imidazole-2-yl)quinazoline]cupric nitrate]
MIC with Cu (Table I): 0.2 µg/mL
MIC (Table I): 12.5 µg/mL

C=Cn1ccnc1-c1cc2ccccc2c(N)n1 [Example XVIIc, 1-amino-3-(1-ethenyl-1H-imidazole-2-yl) isoquinoline]
MIC [1]: > 100 µg/mL
MIC with Cu (Table I): 0.2 µg/mL

Cl.Nc1nc(-c2ccccn2)cc2cc(Br)ccc12 [Example X, 1-Amino-6-bromo-3-(2-pyridyl)isoquinoline hydrochloride]
MIC with Cu (Table I): 0.4 µg/mL

Nc1nc(-c2ccccn2)cc2ccc(I)cc12 [VIIIl]
MIC with Cu (Table I): 0.2 µg/mL

Nc1nc(-c2ccccn2)cc2c(Cl)cccc12.O=[N+]([O-])[O-].O=[N+]([O-])[O-].[Cu+2] [IVb, Mono[1-amino-5-chloro-3-(2-pyridyl)isoquinoline]cupric nitrate]
MIC (Table I): 0.8 µg/mL

Cc1ccc2c(N)nc(-c3ccccn3)cc2c1 [VIIIc]
MIC [1]: 3 µg/mL (≈ 12.8 µM)
MIC with Cu (Table I): 0.4 µg/mL

COc1ccc2ccc3cccnc3c2n1 [G]
MIC [2]: > 100 µg/mL
MIC M. gall. with Cu (Table IVb): 3 µg/mL

Nc1nc(-c2ccccn2)cc2ccccc12.Nc1nc(-c2ccccn2)cc2ccccc12.O=[N+]([O-])[O-].O=[N+]([O-])[O-].[Cu+2] [Example V, bis[1-amino-3-(2-pyridyl)isoquinoline]cupric nitrate]
MIC (Table I): 3 µg/mL

O=[N+]([O-])[O-].[Cu+].c1cnc2c(c1)ccc1cccnc12.c1cnc2c(c1)ccc1cccnc12 [IId, Bis(1,10-phenanthroline)cuprous nitrate]
MIC with Cu (Table I): 25 µg/mL
MIC (Table I): 12.5 µg/mL

Cn1ccnc1-c1cc2ccccc2c(N)n1.Cn1ccnc1-c1cc2ccccc2c(N)n1.O=[N+]([O-])[O-].[Cu+] [XVb (1), Bis[1-amino-3-(1-methyl-1H-imidazole-2-yl)isoquinoline]cuprous nitrate]
MIC with Cu (Table I): 0.8 µg/mL
MIC (Table I): 12.5 µg/mL

Cn1ccnc1-c1cc2ccccc2c(N)n1.O=[N+]([O-])[O-].O=[N+]([O-])[O-].[Cu+2] [XVb (2), mono[1-amino-3-(1-methyl-1H-imidazole-2-yl)isoquinoline]cupric nitrate]
MIC with Cu (Table I): 1.5 µg/mL
MIC (Table I): 12.5 µg/mL

C=Cn1ccnc1-c1cc2ccccc2c(N)n1.O=[N+]([O-])[O-].O=[N+]([O-])[O-].[Cu+2] [XVIId (2), Mono[1-amino-3-(1-ethenyl-1H-imidazole-2-yl)isoquinoline]cupric nitrate]
MIC with Cu (Table I): 0.2 µg/mL
MIC (Table I): 12.5 µg/mL

Cc1cccc(-c2cc3ccccc3cn2)n1 [XIc, 3-(6-methyl-2-pyridyl)isoquinoline]
MIC with Cu (Table I): 0.1 µg/mL

Cn1ccnc1-c1nc(N)c2ccccc2n1.O=[N+]([O-])[O-].O=[N+]([O-])[O-].[Cu+2] [XVIb (2), Mono[4-amino-2-(1-methyl-1H-imidazole-2-yl)quinazoline]cupric nitrate]
MIC with Cu (Table I): 0.4 µg/mL
MIC (Table I): 6 µg/mL

C=Cn1ccnc1-c1nc(N)c2ccccc2n1 [Example XVIIIa, 4-amino-2-(1-ethenyl-1H-imidazole-2-yl)quinazoline]
MIC [1]: > 100 µg/mL
MIC with Cu (Table I): 0.2 µg/mL

Cc1cccc(-c2cc3ccccc3c(N)n2)n1.O=[N+]([O-])[O-].O=[N+]([O-])[O-].[Cu+2] [IVc, Mono[1-amino-3-(6-methyl-2-pyridyl)isoquinoline]cupric nitrate]
MIC (Table I): 0.8 µg/mL

c1ccc(-c2nc(-c3ccccn3)cc3ccccc23)cc1 [XIVb, 1-phenyl-3-(2-pyridyl)isoquinoline]
MIC with Cu (Table I): 0.2 µg/mL

COc1cc2cc(-c3ccccn3)nc(N)c2cc1OC [VIIIa]
MIC [1]: 100 µg/mL (≈ 355 µM)
MIC with Cu (Table I): 12.5 µg/mL

Cc1ccc2cc(-c3ccccn3)nc(N)c2c1.Cc1ccc2cc(-c3ccccn3)nc(N)c2c1.O=[N+]([O-])[O-].[Cu+] [IIb, Bis[1-amino-7-methyl-3-(2-pyridyl)isoquinoline]cuprous nitrate]
MIC (Table I): 6 µg/mL

Cn1ccnc1-c1cc2ccccc2c(N)n1 [XVa, 1-amino-3-(1-methyl-1H-imidazole-2-yl)isoquinoline]
MIC [1]: > 100 µg/mL
MIC with Cu (Table I): 1.5 µg/mL

Nc1ccc2ccc3cccnc3c2n1 [F]
MIC [2]: 25 µg/mL (≈ 128 µM)
MIC M. gall. with Cu (Table IVb): 0.8 µg/mL

Cc1cccc(-c2cc3ccccc3c(Cl)n2)n1 [XIb, 1-Chloro-3-(6-methyl-2-pyridyl)isoquinoline]
MIC with Cu (Table I): 1 µg/mL

Cc1cccc(-c2cc3ccccc3c(N)n2)n1.Cc1cccc(-c2cc3ccccc3c(N)n2)n1.O=[N+]([O-])[O-].O=[N+]([O-])[O-].[Cu+2] [VI (2), bis[1-amino-3-(6-methyl-2-pyridyl)isoquinoline]cupric nitrate]
MIC (Table I): 0.8 µg/mL

C=Cn1ccnc1-c1cc2ccccc2c(N)n1.C=Cn1ccnc1-c1cc2ccccc2c(N)n1.O=[N+]([O-])[O-].O=[N+]([O-])[O-].[Cu+2] [XVIId (3), Bis[1-amino-3-(1-ethenyl-1H-imidazole-2-yl)isoquinoline]cupric nitrate]
MIC with Cu (Table I): 0.2 µg/mL
MIC (Table I): 12.5 µg/mL

Cl.Nc1nc(-c2ccccn2)cc2cc(Cl)ccc12 [Example VII, 1-amino-6-chloro-3-(2-pyridyl)isoquinoline hydrochloride]
MIC with Cu (Table I): 0.4 µg/mL

Nc1nc(-c2ncc[nH]2)cc2ccccc12.O=[N+]([O-])[O-].O=[N+]([O-])[O-].[Cu+2] [XIXb (2), Mono[1-amino-3-(1H-imidazole-2-yl)isoquinoline]cupric nitrate]
MIC with Cu (Table I): 3 µg/mL
MIC (Table I): 50 µg/mL

Nc1nc(-c2ccccn2)cc2ccccc12.O=[N+]([O-])[O-].O=[N+]([O-])[O-].[Cu+2] [IVa, Mono[1-amino-3-(2-pyridyl)isoquinoline]cupric nitrate]
MIC (Table I): 1.5 µg/mL

Nc1nc(-c2ncc[nH]2)cc2ccccc12.Nc1nc(-c2ncc[nH]2)cc2ccccc12.O=[N+]([O-])[O-].O=[N+]([O-])[O-].[Cu+2] [XIXb (3), Bis[1-amino-3-(1H-imidazole-2-yl)isoquinoline]cupric nitrate]
MIC with Cu (Table I): 3 µg/mL
MIC (Table I): 50 µg/mL

CCCc1nc(-c2ccccn2)cc2ccccc12.Cl [XIIIf, 1-propyl-3-(2-pyridyl)isoquinoline hydrochloride]
MIC with Cu (Table I): 0.03 µg/mL

Clc1nc(-c2ccccn2)cc2ccccc12 [XIIc (2), 1-chloro-3-(2-pyridyl)isoquinoline]
MIC with Cu (Table I): 0.06 µg/mL

Nc1ccc2ccc3ccc(N)nc3c2n1 [E]
MIC [2]: 50 µg/mL (≈ 238 µM)
MIC M. gall. with Cu (Table IVb): 0.8 µg/mL

C=Cn1ccnc1-c1cc2ccccc2c(N)n1.C=Cn1ccnc1-c1cc2ccccc2c(N)n1.O=[N+]([O-])[O-].[Cu+] [XVIId (1), Bis[1-amino-3-(1-ethenyl-1H-imidazole-2-yl)isoquinoline]cuprous nitrate]
MIC with Cu (Table I): 0.2 µg/mL
MIC (Table I): 25 µg/mL

Cn1ccnc1-c1nc(N)c2ccccc2n1.Cn1ccnc1-c1nc(N)c2ccccc2n1.O=[N+]([O-])[O-].[Cu+] [XVIb (1), Bis[4-amino-2-(1-methyl-1H-imidazole-2-yl)quinazoline]cuprous nitrate]
MIC with Cu (Table I): 0.2 µg/mL
MIC (Table I): 6 µg/mL

C=Cn1ccnc1-c1nc(N)c2ccccc2n1.C=Cn1ccnc1-c1nc(N)c2ccccc2n1.O=[N+]([O-])[O-].[Cu+] [XVIIIb (1), Bis[4-amino-2-(1-ethenyl-1H-imidazole-2-yl)quinazoline]cuprous nitrate]
MIC with Cu (Table I): 0.2 µg/mL
MIC (Table I): 12.5 µg/mL

Nc1nc(-c2ncc[nH]2)nc2ccccc12.O=[N+]([O-])[O-].O=[N+]([O-])[O-].[Cu+2] [XXb (2), Mono[4-amino-2-(1H-imidazole-2-yl)quinazoline]cupric nitrate]
MIC with Cu (Table I): 1.5 µg/mL
MIC (Table I): 25 µg/mL

Cl.Cl.Nc1nc(-c2ncc[nH]2)nc2ccccc12 [XXa, 4-amino-2(1H-imidazole-2-yl)quinazoline dihydrochloride]
MIC [1]: > 100 µg/mL
MIC with Cu (Table I): 3 µg/mL

Nc1nc(-c2ccccn2)cc2c(Cl)cccc12.Nc1nc(-c2ccccn2)cc2c(Cl)cccc12.O=[N+]([O-])[O-].[Cu+] [IIa, Bis[1-amino-5-chloro-3-(2-pyridyl)isoquinoline]cuprous nitrate]
MIC (Table I): 1.5 µg/mL

C=Cn1ccnc1-c1nc(N)c2ccccc2n1.C=Cn1ccnc1-c1nc(N)c2ccccc2n1.O=[N+]([O-])[O-].O=[N+]([O-])[O-].[Cu+2] [XVIIIb (3), Bis[4-amino-2-(1-ethenyl-1H-imidazole-2-yl)quinazoline]cupric nitrate]
MIC with Cu (Table I): 0.2 µg/mL
MIC (Table I): 12.5 µg/mL

Nc1nc(-c2ncc[nH]2)nc2ccccc12.Nc1nc(-c2ncc[nH]2)nc2ccccc12.O=[N+]([O-])[O-].O=[N+]([O-])[O-].[Cu+2] [XXb (3), Bis[4-amino-2-(1H-imidazole-2-yl)quinazoline]cupric nitrate]
MIC with Cu (Table I): 6 µg/mL
MIC (Table I): 50 µg/mL

Cn1ccnc1-c1nc(N)c2ccccc2n1 [XVIa, 4-amino-2-(1-methyl-1H-imidazole-2-yl)quinazoline]
MIC [1]: 25 µg/mL (≈ 111 µM)
MIC with Cu (Table I): 0.2 µg/mL

Clc1ccc2ccc3ccc(Cl)nc3c2n1.Clc1ccc2ccc3ccc(Cl)nc3c2n1.O=[N+]([O-])[O-].[Cu+] [IIe, Bis(2,9-dichloro-1,10-phenanthroline)cuprous nitrate]
MIC (Table I): 25 µg/mL

Nc1nc(-c2ccccn2)cc2cccc(Cl)c12 [VIIIj]
MIC [1]: 100 µg/mL (≈ 391 µM)
MIC with Cu (Table I): 0.2 µg/mL

CCc1ccc2cc(-c3ccccn3)nc(N)c2c1 [VIIIk]
MIC with Cu (Table I): 0.2 µg/mL
